Literature values, collected in patent US6241994A, “Solid TCMTB formulations” (Buckman Laboratories International, Inc., priority 1998, dated 2001).

Key:
[1] = for pH above which the substance decomposes: decomposition at a pH above the value
[2] = unstable at temperatures greater than the value

Row | Compound | solubility in most of organic solvents (most of organic solvents) | stability in acidic systems ([1]; acidic systems, ambient temperature) | pH above which the substance decomposes [1] | temperature above which considered unstable [2] | solubility in water (in water)
1 | N#CSCSC#N [MTC, methylene bisthiocyanate] | soluble | stable | above 7.5 | greater than 100 °C | –
2 | N#CSCSc1nc2ccccc2s1 [TCMTB, 2-(thiocyanomethylthio)-benzothiazole] | – | – | above 8.0 | – | about 0.033 g/l
